Data taken from patent US9856207B2, “Process for the production of ralfinamide salts substantially free from impurities having genotoxic effects” (Newron Pharmaceuticals S.p.A., priority 2010, dated 2018).

Assays:
Type in all cases: physicochemical
[1] = Exposure of form A crystals to air stream of high relative humidity (water uptake, solid form conversion); details: 97% RH air stream at 25° C. for two months
Source text: As an alternative procedure to the slurring with water for converting anhydrous form A crystals containing undesired amounts of genotoxic impurities and/or of the residual solvents known as potential precursors thereof into the corresponding hemihydrate pseudopolymorph form H substantially free from the genotoxic impurities and/or the residual solvents known as potential precursors thereof, the capability of anhydrous form A crystals to uptake water from air having high degree of relative humidity may be exploited. For example, full conversion of form A crystals into the corresponding hemihydrate pseudopolymorph form H crystals can be achieved by keeping a batch of ralfinamide methanesulfonate or its R-enantiomer form A crystals under air stream having relative humidity higher than 65% at a temperature from 5° C. to 30° C. for a period of time which may vary from days to weeks or months, depending on the relative humidity degree and the temperature.

[2] = Intrinsic Dissolution Rate (IDR) measurement according to USP General Chapter <1087>; details: ralfinamide methanesulfonate solid forms, USP <1087>
Experimental: Intrinsic dissolution rate is characteristic of each solid compound in a given solvent under fixed hydrodynamic conditions. The knowledge of this value helps in predicting if absorption would be dissolution rate-limited. The Intrinsic Dissolution Rate (IDR) measurement of ralfinamide methanesulfonate form A and H was performed according to USP General Chapter <1087>.

[3] = Solubility of the free base in water; details: also at 100° C.
Experimental: According to a preferred method to carry out the procedure defined above as “salt formation”, the formation of ralfinamide methanesulfonate form H or its R-enantiomer is carried out by using water as the sole solvent in which the free base and the methanesulfonic acid are contacted in substantially equimolecular proportion. According to a more preferred method, methanesulfonic acid is added to a suspension or emulsion of the free base in water. Generally 50-70 percent of the stoichiometric amount of the acid is initially added. […] The remaining portion of methanesulfonic acid to complete the stoichiometric amount required for the salification, or a small excess or defect (in both cases of up to 3 molar %), is subsequently added to the obtained solution. […] Therefore, it would not be possible to apply prior to the addition of the acid, any purification method implying the treatment of a solution of the free base with active charcoal or inert powder followed by filtration to remove small particles and/or impurities. […] The complementary amount of acid may be added soon after this treatment of the solution, preferably, after lowering the temperature of the mixture below 70° C.

Row | SMILES | Solid form stability under humid air [1] | Intrinsic Dissolution Rate [2] [mg · cm−2 · min−1] | Solubility in water [3]
1 | CS(=O)(=O)O.C[C@H](NCc1ccc(OCc2ccccc2F)cc1)C(N)=O [Anhydrous form A, (S)-2-[4-(2-fluorobenzyloxy)benzylamino]propanamide methanesulfonate] | fully converted into the form H | 1.527 ± 0.265 | –
2 | CS(=O)(=O)O.C[C@H](NCc1ccc(OCc2ccccc2F)cc1)C(N)=O [Hemihydrate form H, (S)-2-[4-(2-fluorobenzyloxy)benzylamino]propanamide methanesulfonate] | – | 0.857 ± 0.012 | –
3 | C[C@@H](NCc1ccc(OCc2ccccc2F)cc1)C(N)=O [R-enantiomer, (R)-2-[4-(2-fluorobenzyloxy)benzylamino]propanamide] | – | – | practically insoluble in water
4 | C[C@H](NCc1ccc(OCc2ccccc2F)cc1)C(N)=O [Ralfinamide free base, (S)-2-[4-(2-fluorobenzyloxy)benzylamino]propanamide] | – | – | practically insoluble in water
